Assay results reported in patent publication US20120115742A1, “METHODS FOR IDENTIFICATION” (Cambridge Enterprise Limited, priority 2009, published 2012).
pEC50: −log10 of the molar value.

Legend:
[1] = system: THP-1 cells; experiment: MCP-1 induced THP-1 cell migration (Transwell/ChemoTx)
Description: Leukocyte migration was measured using the 96-well format micro Transwell® assay system from Neuroprobe (Gaithersburg, Md., USA). In principle, this assay consists of two chambers separated by a porous membrane. The chemoattractant is placed in the lower compartment and the cells are placed in the upper compartment.
First, the cell suspension to be placed in the upper compartment was prepared. The THP-1 cells were pelleted by centrifugation (770×g; 4 mins) and washed with Geys Balanced Salt Solution with 1 mg/ml BSA (GBSS+BSA). This wash was then repeated, and the cells re-pelleted before being resuspended in a small volume of GBSS+BSA for counting, for example using a standard haemocytometer.
This ensured that there were 100,000 THP-1 cells in each 25 μl of the solution to be placed in the upper chamber of the plate.
To the third pot, GBSS+BSA plus vehicle as appropriate was added so that the volumes in three pots are equal, acting as a control.
Next, the chemoattractant solution to be placed in the lower compartment was prepared. […] This solution was divided into three pots, as for the cell suspension. To one pot, the BSCI was added to the same final concentration as was added to the cell suspension, in the second pot the BSCI and the sstr2 antagonist were both added at the same concentration as previously added to the cell suspension, while to the remaining pot GBSS+BSA plus vehicle as appropriate was added so that the volumes in the three pots were equal.
Once the chemoattractant solutions for the lower wells and cell solutions for the upper chambers were prepared, the migration chamber was assembled. 29 μl of the appropriate chemoattractant solution was placed into the lower well of the chamber. Assays were performed with at least triplicate determinations of each condition. Once all the lower chambers were filled, the porous membrane was applied to the chamber in accordance with the manufacturer's instructions. Finally, 25 μl of the appropriate cell solution was applied to each upper chamber. A plastic lid was placed over the entire apparatus to prevent evaporation.
The assembled chamber was incubated at 37° C., 5% CO2, for 2 hours.
At the end of the incubation, the liquid cell suspension was gently removed from the upper chamber, 20 μl of ice-cold 20 mM EDTA in PBS was added to the upper chamber, and the apparatus was incubated at 4° C. for 15 mins. This procedure caused any cells adhering to the underside of the membrane to fall into the lower chamber.
After this incubation the filter was carefully flushed with GBSS+BSA to wash off the EDTA, and then the filter was removed.
The number of cells migrated into the lower chamber under each condition can then be determined by a number of methods, including direct counting, labelling with fluorescent or radioactive markers or through the use of a vital dye. Typically, we utilised the vital dye MTT. 3 μl of stock MTT solution were added to each well, and then the plate was incubated at 37° C. for 1-2 hours during which time dehydrogenase enzymes within the cells converted the soluble MTT to an insoluble blue formazan product that could be quantified spectrophotometrically.
In parallel, an 8-point standard curve was set up. Starting with the number of cells added to each upper chamber (100,000) and going down in 2-fold serial dilutions in GBSS+BSA, the cells were added to a plate in 25 with 3 μl of MTT stock solution added. The standard curve plate was incubated along side the migration plate. At the end of this incubation, the liquid was carefully removed from the lower chambers, taking care not to disturb the precipitated formazan product.
The MCP-1 stimulated migration was determined by subtracting the average number of cells that reached the lower compartment in wells where no MCP-1 was added from the average number of cells that reached the lower compartment where MCP-1 was present at 25 ng/ml.

[2] = system: fetal rat pituicytes; experiment: Rat pituicyte GH suppression assay; type: cell-based; conditions: Table 3; suppression compared to vehicle
Source text: (§1) Two different assays for “classical” sstr2 functions were adopted: (1) cultured foetal rat pituitary cells secreted growth hormone which is inhibited by sstr2 agonists in a dose-dependent fashion and (2) selected glucose-sensitive sub-clones of the human Panc-1 cell line secrete insulin which is inhibited by sstr2 agonists in a dose-dependent fashion.
Methods: Cultures of fetal rat pituicytes were established exactly as previously described (Murray et al. (2004) J. Clin. Endocrinol. Metab. 89:3027-32) by enzymatic dispersion. After 48 hrs in low glucose DMEM plus 10% FCS, cells in 48 well plates (5×10^4 cells per well) were washed for 4 hrs in serum-free DMEM and then incubated with test agents at various concentrations for a further 24 hrs in serum-free DMEM. At the end of this period, the conditioned medium was harvested, any cell debris removed by centrifugation and assayed for […] using a commercially available ELISA (Linco; cat# EZRMGH-45K) in accordance with the manufacturer's instructions.
(§2) Results were reported as the mean SD, expressed as the fold change from cells in the presence of vehicle only.

[3] = system: Panc-2H4 cells; experiment: Human Panc-2H4 insulin suppression assay; type: cell-based
Source text: as §1
Glucose-sensitive sub-clones of the human Panc-1, a cell line derived from a pleiomorphic epithelioid carcinoma of the exocrine pancreas, were obtained essentially as described by Hamil et al. (2008) Biomed. Sci. Instrum. 44:441-6. Briefly, Panc-1 cells were subcultured in 24 well plates, and the medium was supplemented with an additional 5% glucose. […] The resulting sub-lines were then tested for glucose sensitivity by preparing wells of a 96-well plate (5×10^4 cells per well) which were then exposed to cultured medium containing a range of glucose concentrations (low glucose DMEM, DMEM, DMEM+1% glucose, DMEM+2.5% glucose and DMEM+5% glucose). After 24 hrs incubation, the conditioned medium was collected and assayed for insulin secretion by ELISA (Linco; cat# EZHI-14K) in accordance with the manufacturer's instructions. […] Further 96 well plates were prepared using Panc-2H4 (5×10^4 cells per well) in DMEM. After 24 hrs, the medium was switched to DMEM+5% glucose containing various test agents at various concentrations (triplicate wells per condition). After a further 24 hrs, the conditioned medium was harvested and the concentration of insulin was determined by ELISA as described above.
as §2

[4] = system: TNF-alpha; experiment: Sub-lethal endotoxemia model, serum TNF-alpha after LPS; type: in vivo, mouse; conditions: dose-dependent; BN83250 s.c., valerolactam oral gavage
Description: We selected the sub-lethal endotoxemia model in mouse, because this has been well characterised in our laboratory (see for example Fox et al. (2002) J. Med. Chem. 45:360-70; Fox et al. (2005) J. Med. Chem. 48:867-74). The extent of systemic inflammation in response to a single intraperitoneal injection of bacterial lipopolysaccharide (LPS) can be estimated by measuring serum TNF-alpha 2 hours post challenge.
Methods: Mice (CD1 strain; adult males; 6 per group) were treated with BSCI (in an appropriate vehicle) or with vehicle alone by an appropriate route. […] Simultaneously, one set of mice at each BSCI concentration received BIM 23627 at 4 mg/animal (120 mg/kg) by sub-cutaneous injection (a treatment condition known to suppress classical sstr2-mediated signalling, such as GH release, in rats; Tulipano et al. (2002) 143:1218-24). Between 30 mins and 1 hour after dosing (a period when a maximal plasma concentration of BSCI has been achieved), the inflammatory challenge was elicited by intraperitoneal injection of 750 μg of LPS (Sigma; L4130 lot#024K4077; 900,000 EU/mg).
After a further 2 hours, the animals were sacrificed by CO2 asphyxiation, and blood was drawn by cardiac puncture. Serum was prepared by conventional methods, and the level of TNF-alpha in serum was measured using an ELISA (R&D Systems; Murine Quantikine code# MTA00) performed in accordance with the manufacturer's instructions.

[5] = system: rat peripheral blood leukocytes; experiment: Rat chemokine-induced PBMC migration assay; type: cell-based
Description: Similarly, where human Panc-2H4 cells are used to determine the effect of agents on classical sstr2 targets, the result is compared with the effect of the same agents on chemokine-induced migration of human THP-1 cells. […] For this reason, the ratio of “classical” to “BSCI” activity in Table 3 is calculated separately for rat and human.

[6] = system: Jurkat-D3B cells; experiment: SDF-1α induced migration of Jurkat-D3B cells expressing sstr2; type: cell-based, human
Description: Methods: Total mRNA was prepared from Panc-1 cells (a human pancreas cell line which is well known to express high levels of sstr2) using the RNAqueous 4PCR kit (Ambion, Cat code #1914) in accordance with the manufacturer's instructions. The mRNA was then reverse transcribed (using the RETROscript kit; Ambio) to yield a cDNA preparation. A full length cDNA of the sstr2 gene was then obtained by PCR (using a Peltier PTC-200 thermal cycler using the following cycle times and conditions: 94° C. for 2 min, followed by 30 cycles of 94° C., for 30 sec, 55° C. for 30 sec, 72° C. for 1 min and finally 72° C. for 10 min), and isolated by preparative gel electrophoresis. The sequence of the sstr2 cDNA was confirmed by sequencing. The sstr2 cDNA was treated with EcoRI and Xhol to generate sticky ends, which allowed directional cloning into the polylinker of the plasmid pcDNA3.1+ (Invitrogen) followed by ligation ([…] ligation reactions were run with 400 T4 DNA ligase (New England Biolabs) and the maximal amounts of DNA with an insert:plasmid ratio of 3:1 in ligase buffer incubated overnight at 13° C.). […]
A number of individual cell lines were obtained in this way, which expressed significant levels of sstr2 on the cell surface, detected by flow cytometry using the human-sstr2 antibody (Sigma, 50694; see Example 3 for details of the flow cytometry protocol used). […]

## CC(C)(C)C(=O)N[C@H]1CCCNC1=O [Valerolactam, (S)-3-(2′2′-dimethylpropionoylamino)-tetrahydropyridin-2-one]
[1]; MCP-1 induced THP-1 migration, FIG. 5 versus FIG. 4
  potency relative to BN83253: 20-50 fold
[1]; THP-1 migration ED50 versus Panc-2H4 insulin ED50
  “Classical”:“BSCI” potency ratio, Human: <0.00005
[1]; Table 3
  Human chemokine-induced THP-1 migration assay Max effect: 100%
[2]
  Rat pituicyte GH suppression assay Max effect: 61%
[3]; Table 3, read-out: Human Panc-2H4 insulin suppression assay ED50
  pEC50: < 6.00
[3]; Table 3, suppression compared to vehicle
  Human Panc-2H4 insulin suppression assay Max effect: <10%
[3]; highest concentrations tested
  inhibition of insulin secretion by Panc-2H4: None of these agents inhibited insulin secretion
[4]
  inhibition of LPS-induced systemic inflammation: dramatically inhibited
[5]; PBMC migration ED50 versus pituicyte GH ED50
  “Classical”:“BSCI” potency ratio, Rat: 0.0009
[5]; Table 3
  Rat chemokine-induced PBMC migration assay Max effect: 100%
[6]
  sensitivity of Jurkat-D3B migration: sensitive to inhibition
